The IC90 is the concentration needed for an effect of 90%.

From patent US11390604B2 (Hoffmann-La Roche Inc., priority 2019, dated 2022) come the findings set out here.

SMILES strings stand for the structures.

The test system of the assay is Acinetobacter baumannii ATCC 17961. Briefly: Antimicrobial susceptibility testing: 90% growth inhibitory concentration (IC90) determination. The assay is classed as cell-based. To be noted: ATCC17961, Acinetobacter baumannii ATCC 17961, Iso-Sensitest broth, read-out: ATCC 17961 IC90. In outline:
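Growth was followed kinetically by OD600 at 20-min intervals for 16 h at 35±2 °C, with ~5×10^5 CFU/ml in Iso-Sensitest broth. Compounds were tested as twofold dilutions (e.g. 50–0.097 μM final). The concentration giving 90% inhibition of log-phase growth was reported.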
For `CCc1cc(NC(=O)c2ncc(-c3cn(CC#N)nc3C(F)(F)F)n2C)ccc1C(=O)N1CCN(C(=O)C2(O)CCNCC2)CC1` [Example 129, 5-[1-(cyanomethyl)-3-(trifluoromethyl)pyrazol-4-yl]-N-[3-ethyl-4-[4-(4-hydroxypiperidine-4-carbonyl)piperazine-1-carbonyl]phenyl]-1-methylimidazole-2-carboxamide;formic acid], the IC90 was 949 nM. In the case of `CCc1cc(NC(=O)c2ncc(-c3cn(CC#N)nc3C(F)(F)F)n2C)ccc1C(=O)N1CCN(C(=O)[C@@H]2CCNC2)CC1` [Example 130, 5-[1-(cyanomethyl)-3-(trifluoromethyl)pyrazol-4-yl] N-[3-ethyl-4-[4-[(3R)-pyrrolidine-3-carbonyl]piperazine-1-carbonyl]phenyl]-1-methylimidazole-2-carboxamide;formic acid], the IC90 was 947 nM. Take `CCc1cc(NC(=O)c2ncc(-c3cn(CC#N)nc3C(F)(F)F)n2C)ccc1C(=O)N1CCN(C(=O)C2CNC2)CC1` [Example 131, N-[4-[4-(azetidine-3-carbonyl)piperazine-1-carbonyl]-3-ethylphenyl]-5-[1-(cyanomethyl)-3-(trifluoromethyl)pyrazol-4-yl]-1-methylimidazole-2-carboxamide;formic acid]: the IC90 was 1700 nM. With `CCc1cc(NC(=O)c2ncc(-c3cn(CC#N)nc3C(F)(F)F)n2C)ccc1C(=O)N1CCN(C(=O)NCC2(O)CNC2)CC1` [Example 132, 4-[4-[[5-[1-(cyanomethyl)-3-(trifluoromethyl)pyrazol-4-yl]-1-methylimidazole-2-carbonyl]amino]-2-ethylbenzoyl]-N-[(3-hydroxyazetidin-3-yl)methyl]piperazine-1-carboxamide;formic acid], the IC90 amounted to 1170 nM.

As for `CCc1cc(NC(=O)c2ncc(-c3cn(CC#N)nc3C(F)(F)F)n2C)ccc1C(=O)N1CCN(C(=O)N2CCCC(N)C2)CC1` (stereo not shown) [Example 133, N-[4-[4-(3-aminopiperidine-1-carbonyl)piperazine-1-carbonyl]-3-ethylphenyl]-5-[1-(cyanomethyl)-3-(trifluoromethyl)pyrazol-4-yl]-1-methylimidazole-2-carboxamide;formic acid], the IC90 is 775 nM. With `CCc1cc(NC(=O)c2ncc(-c3cn(CC#N)nc3C(F)(F)F)n2C)ccc1C(=O)N1CCN(C(=O)N2CC3(CC(N)C3)C2)CC1` [Example 134, N-[4-[4-(6-amino-2-azaspiro[3.3]heptane-2-carbonyl)piperazine-1-carbonyl]-3-ethylphenyl]-5-[1-(cyanomethyl)-3-(trifluoromethyl)pyrazol-4-yl]-1-methylimidazole-2-carboxamide;formic acid], the IC90 is 860 nM. For the compound `CCc1cc(NC(=O)c2ncc(-c3cn(CC#N)nc3C(F)(F)F)n2C)ccc1C(=O)N1CCN(C(=O)N2CCNC(C)C2)CC1` (stereo not shown) [Example 135, 5-[1-(cyanomethyl)-3-(trifluoromethyl)pyrazol-4-yl]-N-[3-ethyl-4-[4-(3-methylpiperazine-1-carbonyl)piperazine-1-carbonyl]phenyl]-1-methylimidazole-2-carboxamide;formic acid], the IC90 amounted to 885 nM. As for `CCc1cc(NC(=O)c2ncc(-c3cn(CC#N)nc3C(F)(F)F)n2C)ccc1C(=O)N1CCN(C(=O)N2CCC(C)(N)CC2)CC1` [Example 136, N-[4-[4-(4-amino-4-methylpiperidine-1-carbonyl)piperazine-1-carbonyl]-3-ethylphenyl]-5-[1-(cyanomethyl)-3-(trifluoromethyl)pyrazol-4-yl]-1-methylimidazole-2-carboxamide;formic acid], the figure is 741 nM; as for `CCc1cc(NC(=O)c2ncc(-c3cn(CC#N)nc3C(F)(F)F)n2C)ccc1C(=O)N1CCN(C(=O)N2CCC(CN)C2)CC1` (stereo not shown) [Example 138, N-[4-[4-[3-(aminomethyl)pyrrolidine-1-carbonyl]piperazine-1-carbonyl]-3-ethylphenyl]-5-[1-(cyanomethyl)-3-(trifluoromethyl)pyrazol-4-yl]-1-methylimidazole-2-carboxamide;formic acid], 888 nM; as for `CCc1cc(NC(=O)c2ncc(-c3cn(CC#N)nc3C(F)(F)F)n2C)ccc1C(=O)N1CCN(C(=O)N2CCCC2CN)CC1` (stereo not shown) [Example 139, N-[4-[4-[2-(aminomethyl)pyrrolidine-1-carbonyl]piperazine-1-carbonyl]-3-ethylphenyl]-5-[1-(cyanomethyl)-3-(trifluoromethyl)pyrazol-4-yl]-1-methylimidazole-2-carboxamide;formic acid], 1160 nM. For `CCc1cc(NC(=O)c2ncc(-c3cn(CC#N)nc3C(F)(F)F)n2C)ccc1C(=O)N1CCN(C(=O)NC2C3CNCC32)CC1` (stereo not shown) [Example 140, N-(3-azabicyclo[3.1.0]hexan-6-yl)-4-[4-[[5-[1-(cyanomethyl)-3-(trifluoromethyl)pyrazol-4-yl]-1-methylimidazole-2-carbonyl]amino]-2-ethylbenzoyl]piperazine-1-carboxamide;formic acid], the IC90 worked out at 1050 nM. As for `CCc1cc(NC(=O)c2ncc(-c3cn(CC#N)nc3C(F)(F)F)n2C)ccc1C(=O)N1CCN(C(=O)N2CC3CC2CN3)CC1` (stereo not shown) [Example 141, 5-[1-(cyanomethyl)-3-(trifluoromethyl)pyrazol-4-yl]-N-[4-[4-(2,5-diazabicyclo[2.2.1]heptane-2-carbonyl)piperazine-1-carbonyl]-3-ethylphenyl]-1-methylimidazole-2-carboxamide;formic acid], the IC90 was found to be 887 nM.

Regarding `Cn1c(-c2cn(CC(F)F)nc2C(F)(F)F)cnc1C(=O)Nc1ccc(C(=O)N2CCN(C(=O)N[C@H]3CCNC3)CC2)c(Cl)c1` [Example 142, 4-[2-chloro-4-[[5-[1-(2,2-difluoroethyl)-3-(trifluoromethyl)pyrazol-4-yl]-1-methylimidazole-2-carbonyl]amino]benzoyl]-N-[(3S)-pyrrolidin-3-yl]piperazine-1-carboxamide;formic acid], the IC90 came to 343 nM. Regarding `Cn1c(-c2cn(CC#N)nc2C(F)(F)F)cnc1C(=O)Nc1ccc(C(=O)N2CCN(C(=O)N[C@H]3CCNC3)CC2)c(Cl)c1` [Example 143, 4-[2-chloro-4-[[5-[1-(cyanomethyl)-3-(trifluoromethyl)pyrazol-4-yl]-1-methylimidazole-2-carbonyl]amino]benzoyl]-N-[(3S)-pyrrolidin-3-yl]piperazine-1-carboxamide;formic acid], the IC90 came to 426 nM. For `Cn1c(-c2cn(CCF)nc2C(F)(F)F)cnc1C(=O)Nc1ccc(C(=O)N2CCN(C(=O)NC3CNC3)CC2)c(Cl)c1` [Example 144, N-(azetidin-3-yl)-4-[2-chloro-4-[[5-[1-(2-fluoroethyl)-3-(trifluoromethyl)pyrazol-4-yl]-1-methylimidazole-2-carbonyl]amino]benzoyl]piperazine-1-carboxamide;formic acid], the IC90 worked out at 621 nM. Regarding `Cn1c(-c2cn(CCF)nc2C(F)(F)F)cnc1C(=O)Nc1ccc(C(=O)N2CCN(C3=NC(CN)CO3)CC2)c(Cl)c1` (stereo not shown) [Example 145, N-[4-[4-[4-(aminomethyl)-4,5-dihydro-1,3-oxazol-2-yl]piperazine-1-carbonyl]-3-chlorophenyl]-5-[1-(2-fluoroethyl)-3-(trifluoromethyl)pyrazol-4-yl]-1-methylimidazole-2-carboxamide;formic acid], the IC90 was 928 nM.
